Assay [1] deals with T1, Gastrin/cholecystokinin type B receptor (Mus musculus, UniProt P56481).
T1 sequence (P56481 whole entry): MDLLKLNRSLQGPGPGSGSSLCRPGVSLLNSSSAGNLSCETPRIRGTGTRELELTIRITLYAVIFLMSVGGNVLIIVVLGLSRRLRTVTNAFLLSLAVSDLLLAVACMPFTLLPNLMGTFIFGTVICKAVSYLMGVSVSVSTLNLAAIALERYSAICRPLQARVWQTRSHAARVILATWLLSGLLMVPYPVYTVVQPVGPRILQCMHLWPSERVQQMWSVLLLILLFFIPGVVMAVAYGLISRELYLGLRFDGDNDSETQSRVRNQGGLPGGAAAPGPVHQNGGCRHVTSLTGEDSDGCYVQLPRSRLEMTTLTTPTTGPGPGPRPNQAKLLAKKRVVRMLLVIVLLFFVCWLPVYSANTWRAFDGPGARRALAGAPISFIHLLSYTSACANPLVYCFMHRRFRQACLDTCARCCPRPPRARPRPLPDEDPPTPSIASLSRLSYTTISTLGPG
Briefly: Concentration producing half-maximal inhibition of specific binding of [125I]Bolton-Hunter CCK-8 to Cholecystokinin type B receptor in the mouse cerebral cortex. It counts as tissue-based.

In assay [2] the target is T2, Cholecystokinin receptor type A (Rattus norvegicus, UniProt P30551).
T2 sequence (P30551 whole entry): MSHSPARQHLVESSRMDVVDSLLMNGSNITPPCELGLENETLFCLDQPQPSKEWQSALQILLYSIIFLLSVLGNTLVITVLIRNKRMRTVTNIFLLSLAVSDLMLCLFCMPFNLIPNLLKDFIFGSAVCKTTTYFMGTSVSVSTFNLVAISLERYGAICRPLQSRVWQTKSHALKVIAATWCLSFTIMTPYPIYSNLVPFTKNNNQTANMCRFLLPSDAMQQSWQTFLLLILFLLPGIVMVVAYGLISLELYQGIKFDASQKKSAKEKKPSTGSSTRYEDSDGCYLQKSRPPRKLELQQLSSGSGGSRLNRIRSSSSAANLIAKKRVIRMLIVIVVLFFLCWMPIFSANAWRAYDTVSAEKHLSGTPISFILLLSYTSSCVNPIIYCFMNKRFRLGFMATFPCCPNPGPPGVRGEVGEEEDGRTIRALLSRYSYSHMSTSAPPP
Briefly: Concentration producing half-maximal inhibition of specific binding of [125I]Bolton-Hunter CCK-8 to Cholecystokinin type A receptor in the rat pancreas.

A further assay concerns the target T3, Neuromedin-K receptor (Cavia porcellus, UniProt P30098).
T3 sequence (P30098 whole entry): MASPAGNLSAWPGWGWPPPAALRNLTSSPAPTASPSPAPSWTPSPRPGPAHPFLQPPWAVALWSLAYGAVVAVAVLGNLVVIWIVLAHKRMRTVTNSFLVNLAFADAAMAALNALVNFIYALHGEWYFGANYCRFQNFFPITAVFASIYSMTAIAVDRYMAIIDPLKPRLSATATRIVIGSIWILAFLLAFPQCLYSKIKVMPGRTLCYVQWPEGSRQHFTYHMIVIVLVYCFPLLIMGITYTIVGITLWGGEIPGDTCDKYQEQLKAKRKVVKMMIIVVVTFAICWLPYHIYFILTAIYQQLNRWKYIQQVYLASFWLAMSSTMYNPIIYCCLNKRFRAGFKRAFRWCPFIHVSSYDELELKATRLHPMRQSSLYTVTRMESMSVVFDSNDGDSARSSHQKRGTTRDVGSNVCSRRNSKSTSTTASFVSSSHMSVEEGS
Briefly: (§1) Concentration producing half-maximal inhibition of specific binding of [3H]senktide to Tachykinin receptor 3 in the guinea pig cerebral cortex. It counts as tissue-based.

The next assay addresses T4, Substance-K receptor (Mesocricetus auratus, UniProt P51144).
T4 sequence (P51144 whole entry): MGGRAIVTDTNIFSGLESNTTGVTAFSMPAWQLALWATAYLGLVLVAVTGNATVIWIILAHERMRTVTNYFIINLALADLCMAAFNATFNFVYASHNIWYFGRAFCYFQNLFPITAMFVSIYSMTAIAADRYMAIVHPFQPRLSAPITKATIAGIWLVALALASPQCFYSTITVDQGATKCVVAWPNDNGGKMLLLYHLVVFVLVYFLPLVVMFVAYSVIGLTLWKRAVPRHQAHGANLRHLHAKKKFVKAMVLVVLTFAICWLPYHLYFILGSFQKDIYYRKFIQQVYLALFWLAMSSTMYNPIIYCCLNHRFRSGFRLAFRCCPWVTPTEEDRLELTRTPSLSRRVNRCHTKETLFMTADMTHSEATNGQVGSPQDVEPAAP
Description: (§2) Concentration producing half-maximal inhibition of specific binding of. [125I]neurokinin A to NK-2 receptors in the hamster urinary bladder. The assay is classed as single protein.

A further assay deals with Substance-P receptor (Cavia porcellus, UniProt P30547). Briefly: Concentration producing half-maximal inhibition of specific binding of. [125I]Bolton-Hunter Substance P to NK-1 receptors in the guinea pig cerebral cortex. It counts as tissue-based.
Sequence of Substance-P receptor (P30547 whole entry): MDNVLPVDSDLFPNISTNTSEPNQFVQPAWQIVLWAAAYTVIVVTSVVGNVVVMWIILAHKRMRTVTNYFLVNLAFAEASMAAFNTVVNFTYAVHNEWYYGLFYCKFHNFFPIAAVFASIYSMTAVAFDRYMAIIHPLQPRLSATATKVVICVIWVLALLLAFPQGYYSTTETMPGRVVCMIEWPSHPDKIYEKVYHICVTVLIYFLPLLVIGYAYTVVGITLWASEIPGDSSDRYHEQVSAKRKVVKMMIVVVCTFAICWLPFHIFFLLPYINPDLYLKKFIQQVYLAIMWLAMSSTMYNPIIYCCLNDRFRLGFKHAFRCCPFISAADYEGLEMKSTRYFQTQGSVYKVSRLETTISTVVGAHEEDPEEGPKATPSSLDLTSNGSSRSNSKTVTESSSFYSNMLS
Assay [3] deals with T5, Neuromedin-K receptor (Cavia porcellus) (UniProt P30098).
T5 sequence (whole entry): T3 sequence (P30098 whole entry)
Described as §1. The assay is classed as tissue-based.

Assay [4] deals with T6, Substance-K receptor (Mesocricetus auratus) (UniProt P51144).
T6 sequence (whole entry): T4 sequence (P51144 whole entry)
Described as §2. Particulars: Cricetulus griseus.

Numbered stars: 1 amine (or outer) side, 2 acyl side, 3 side chain; on linkers, the order of the positions; unused ones are H or OH. Square brackets hold non-standard residues; d marks the D form. Peptide text beside a SMILES is read from it. X1 = C/C=C/CC[C@H](N[*:1])C(=O)[*:2]; pGlu = O=C1CC[C@@H](C(=O)O)N1; Ahp(2) = CCCCC[C@H](N)C(=O)O

What is called IC50 is the point on the concentration scale where inhibition reaches its midpoint. Lower therefore signals greater potency. Regarding `C/C=C/CC[C@H](NC(=O)[C@@H](N)Cc1c[nH]c2ccccc12)C(=O)N[C@@H](CC(=O)O)C(=O)N[C@@H](Cc1ccccc1)C(N)=O`, the IC50 came out at 4.9 nM in assay [1] and 8160 nM in assay [2].
`CCCCC[C@H](NC(=O)[C@H](CC(C)C)NC(=O)CNC(=O)[C@H](Cc1ccccc1)NC(=O)[C@H](Cc1ccccc1)NC(=O)[C@H](CCC(N)=O)NC(=O)[C@H](CCC(N)=O)NC(C)=O)C(N)=O` (Ac-QQFFGL[Ahp(2)]-NH2): the 50% inhibitory concentration (IC50) is 533 nM on Neuromedin-K receptor, 637 nM at Substance-K receptor and 44.7 nM on Substance-P receptor.
The matching figures for `C/C=C/CC[C@H](NC(=O)[C@H](CC(C)C)NC(=O)CNC(=O)[C@H](Cc1ccccc1)NC(=O)[C@H](Cc1ccccc1)NC(=O)[C@H](CCC(N)=O)NC(=O)[C@H](CCC(N)=O)NC(C)=O)C(N)=O` (Ac-QQFFGL[X1]-NH2): 882 nM, 1370 nM and 115 nM.
With `CCCCC[C@H](NC(=O)[C@@H](N)Cc1c[nH]c2ccccc12)C(=O)N[C@@H](CC(=O)O)C(=O)N[C@@H](Cc1ccccc1)C(N)=O` (H-W[Ahp(2)]DF-NH2), the 50% inhibitory concentration (IC50) in assay [1] was 2.83 nM; in assay [2], 8490 nM.
`CSCC[C@H](NC(=O)[C@H](CC(C)C)NC(=O)CNC(=O)[C@H](Cc1ccccc1)NC(=O)[C@H](Cc1ccccc1)NC(=O)[C@H](CCC(N)=O)NC(=O)[C@@H]1CCC(=O)N1)C(N)=O` ([pGlu]QFFGLM-NH2): on Substance-P receptor, the IC50 worked out at 25.4 nM.
One may read the inhibition as the share of the control response that was lost under treatment. Low readings indicate a weak effect, high ones a strong effect. As for `CCCCC[C@H](NC(=O)[C@H](CC(C)C)NC(=O)CNC(=O)[C@H](Cc1ccccc1)NC(=O)[C@H](Cc1ccccc1)NC(=O)[C@H](CCC(N)=O)NC(=O)[C@@H]1CCC(=O)N1)C(N)=O` ([pGlu]QFFGL[Ahp(2)]-NH2), the inhibition in assay [3] was found to be 25%; in assay [4], 47%. For the same compound, at Substance-P receptor, the concentration for half-maximal inhibition (IC50) worked out at 97 nM.
As to `C/C=C/CC[C@H](NC(=O)[C@H](CC(C)C)NC(=O)CNC(=O)[C@H](Cc1ccccc1)NC(=O)[C@H](Cc1ccccc1)NC(=O)[C@H](CCC(N)=O)NC(=O)[C@@H]1CCC(=O)N1)C(N)=O` ([pGlu]QFFGL[X1]-NH2), the IC50 on Neuromedin-K receptor worked out at 1880 nM; on Substance-K receptor, 2900 nM; on Substance-P receptor it was 366 nM.
The compound `CSCC[C@H](NC(=O)[C@@H](N)Cc1c[nH]c2ccccc12)C(=O)N[C@@H](CC(=O)O)C(=O)N[C@@H](Cc1ccccc1)C(N)=O` [TETRAGASTRIN] had an IC50 in assay [2] of 4250 nM.
With Ac-QQFFGLM-NH2, the IC50 at Neuromedin-K receptor turned out to be 276 nM; on Substance-K receptor, 1620 nM; at Substance-P receptor, 29.5 nM.
The corresponding values for H-QQFFGLM-NH2 are 1130 nM, 3290 nM and 49.6 nM.
